In ChEMBL document CHEMBL5365455, “Design, synthesis and anticancer activity of N-aryl indolylsulfoximines: Identification of potent and selective anticancer agents” (Bioorg Med Chem, 2023):
The source made the active and inactive calls. The rule behind the calls is not given here.

Columns and labels:
CWR22R = assay: Anticancer activity against human 22Rv1 cells assessed as cell growth inhibition measured after 48 hrs by MTT assay; format: functional, cell-based; settings: 22Rv1, 48 h
LNCaP C4-2 [1] = assay: Anticancer activity against human LNCaP C4-2 cells assessed as cell growth inhibition measured after 48 hrs by MTT assay; format: functional, cell-based; settings: LNCaP C4-2, 48 h
PC-3 = assay: Anticancer activity against human PC-3 cells assessed as cell growth inhibition measured after 48 hrs by MTT assay; format: functional, cell-based; settings: PC-3, 48 h
HEK293 = assay: (§1) Cytotoxicity against HEK293 cells assessed as cell growth inhibition measured after 48 hrs by MTT assay; format: toxicity, cell-based, Homo sapiens; settings: hek293
MCF7 = assay: Anticancer activity against human MCF7 cells assessed as cell growth inhibition measured after 48 hrs by MTT assay; format: functional, cell-based; settings: MCF7, 48 h
[2] = as §1; format: toxicity, cell-based, Homo sapiens; settings: human, HEK293 cells
Cell membrane [3] = assay: Induction of mitochondrial membrane depolarization in human LNCaP C4-2 cells at 1 ug/ml measured after 48 hrs by JC-1 staining based fluorescence microscopic analysis; format: subcellular; settings: dose 1.0 µg/ml
LNCaP C4-2 [4] = assay: Inhibition of colony formation in human LNCaP C4-2 cells assessed as decrease in colony number at 10 uM measured after 10 days by crystal violet staining based assay; format: functional, cell-based; settings: time 10.0 day
Tubulin (Homo sapiens) [5] = target: T1, Tubulin (Homo sapiens) (UniProt P68371+Q9H4B7+P0DPH7+P68366+Q13509+Q71U36+P04350+Q3ZCM7+P07437+P68363+Q9BQE3+Q6PEY2+Q13885+Q9BVA1+Q9BUF5); assay: Induction of tubulin depolymerization in human LNCaP C4-2 cells assessed as tubulin condensation towards nucleus at 10 uM measured after 48 hrs by fluorescence microscopic analysis; format: cell-based
Tubulin (Homo sapiens) [6] = target: T1, Tubulin (Homo sapiens); assay: Induction of tubulin depolymerization in human 22Rv1 cells assessed as decrease in polymerized tubulin level at 20 uM measured after 24 hrs by Bradford assay relative to control; format: cell-based; design: scale not given: the % may be the effect or the level left
LNCaP C4-2 [7] = assay: Induction of apoptosis in human LNCaP C4-2 cells assessed as increase in c-Jun level at 10 uM measured after 48 hrs by Western blot analysis; format: functional, cell-based
LNCaP C4-2 [8] = assay: Induction of cell death in human LNCaP C4-2 cells assessed as red fluorescence at 10 uM incubated for 48 hrs by ethidium bromide/acridine orange staining based fluorescent microscopic analysis; format: functional
LNCaP C4-2 [9] = assay: Induction of cytokinesis defect in human LNCaP C4-2 cells at 10 uM measured after 48 hrs by DAPI staining based fluorescence imaging analysis; format: functional, cell-based
Tubulin (Homo sapiens) [10] = target: T1, Tubulin (Homo sapiens); assay: Induction of tubulin depolymerization in human LNCaP C4-2 cells assessed as shrinkage of tubulin at 10 uM measured after 48 hrs by fluorescence microscopic analysis; format: cell-based
LNCaP C4-2 [11] = assay: Inhibition of cell migration in human LNCaP C4-2 cells assessed as reduction in cell motility at 10 uM incubated for 12 to 24 hrs by inverted microscopy based scratch wound healing assay; format: functional; settings: time 12-24 hrs
LNCaP C4-2 [12] = assay: Induction of ROS accumulation in human LNCaP C4-2 cells at 10 uM measured after 48 hrs by H2DCFDA dye based inverted fluorescent microscopic analysis; format: functional, cell-based
Cell membrane [13] = assay: Induction of mitochondrial membrane depolarization in human LNCaP C4-2 cells at 10 uM measured after 48 hrs by JC-1 staining based fluorescence microscopic analysis; format: subcellular
LNCaP C4-2 [14] = assay: Induction of apoptosis in human LNCaP C4-2 cells assessed as increase in p53 level at 10 uM measured after 48 hrs by Western blot analysis; format: functional, cell-based

| IC50 (LNCaP C4-2 [1]) [µM] | IC50 (PC-3) [µM] | IC50 (MCF7) [µM] | Compound | IC50 (CWR22R) [µM] | IC50 (HEK293) [µM] | further results |
| --- | --- | --- | --- | --- | --- | --- |
| 40 | > 40 |  | COc1cc(N=S(C)(=O)c2cn(Cc3ccc(Cl)cc3)c3ccccc23)cc(OC)c1OC (configuration not stated) | > 40 | > 40 |  |
| 10 | 21.7 | 40 | COc1cc(N=S(C)(=O)c2c[nH]c3ccccc23)cc(OC)c1OC (configuration not stated) | > 40 | > 40 |  |
|  |  | 1.28 | COc1ccc(N=S(C)(=O)c2c[nH]c3ccc(Br)cc23)cc1 (configuration not stated) |  |  | IC50 at 48 h [2]: > 40 µM |
| 8.9 | > 40 | 10 | CS(=O)(=Nc1ccccc1)c1c[nH]c2ccccc12 (configuration not stated) | > 40 | > 40 |  |
| > 40 | > 40 | 38.8 | COc1ccc2[nH]cc(S(C)(=O)=Nc3cc(OC)c(OC)c(OC)c3)c2c1 (configuration not stated) | 2.68 | > 40 |  |
| 2.3 | > 40 | 1.6 | Cc1ccc(N=S(C)(=O)c2c[nH]c3ccccc23)cc1 (configuration not stated) | > 40 |  | IC50 at 48 h [2]: 40 µM |
| 1.95 | 17.1 | > 40 | COc1ccc(N=S(C)(=O)c2c[nH]c3ccccc23)cc1 (configuration not stated) | 3.31 | > 40 |  |
| 40 | 12.2 | > 40 | COc1ccc(N=S(C)(=O)c2c[nH]c3ccc(OC)cc23)cc1 (configuration not stated) | 2.76 | > 40 |  |
|  |  |  | COc1ccc(C[C@H](N)C(=O)N[C@H]2[C@@H](O)[C@H](n3cnc4c(N(C)C)ncnc43)O[C@@H]2CO)cc1 |  |  | Activity (Cell membrane [3]): Active |
| > 40 | 11.1 | > 40 | CS(=O)(=Nc1ccc(Br)cc1)c1c[nH]c2ccccc12 (configuration not stated) | > 40 | > 40 |  |
| 8.2 | 3.51 | 1.7 | COc1ccc(N=S(C)(=O)c2c[nH]c3cc(F)ccc23)cc1 (configuration not stated) | 1.91 |  | inhibition (LNCaP C4-2 [4]): Active; Activity (Tubulin (Homo sapiens) [5]): Active; Activity (Tubulin (Homo sapiens) [6]): 13%; Activity (LNCaP C4-2 [7]): Active; Activity (LNCaP C4-2 [8]): Active; Activity (LNCaP C4-2 [9]): Active; Activity (Tubulin (Homo sapiens) [10]): Active; inhibition (LNCaP C4-2 [11]): Active; Activity (LNCaP C4-2 [12]): Active; Activity (Cell membrane [13]): Active; Activity (LNCaP C4-2 [14]): Active; IC50 at 48 h [2]: > 40 µM |
| 1.9 | 14.4 | > 40 | CS(=O)(=Nc1ccc(F)c(F)c1)c1c[nH]c2ccccc12 (configuration not stated) | 40 | > 40 |  |
| 3.7 | > 40 | 40 | CS(=O)(=Nc1ccc(F)cc1)c1c[nH]c2ccccc12 (configuration not stated) | 40 | > 40 |  |
| 2.18 |  | 2 | CS(=O)(=Nc1cccc(C(F)(F)F)c1)c1c[nH]c2ccccc12 (configuration not stated) | > 40 |  | IC50 at 48 h [2]: 40 µM |
